These results are taken from paper PMC6806071 (2019).

Assay [1] relates to 56-mer VTD3 aptamer (DNA, aptamer) AGCAGCACAGAGGTCATGGGGGGTGTGACTTTGGTGTGCCTATGCGTGCTACGGAA
The assay is described as follows: curcumin fluorescence displacement. Particulars: 0.1 mM NaCl; 5% ethanol; aptamer 100 nM, curcumin 0.6 µM displaced; up to 1 µM.

Assay [2] shares this test system. Put plainly: CD; curcumin fluorescence displacement. The following applies: 0.1 mM NaCl; CD: aptamer 0.8 µM, VTD3 20 µM; curcumin displaced.
The subject of assay [3] is Random ssDNA (70-mer) (DNA, single strand) AGGCCTAAGGGCATAATTAGCTCGAGCTCGAAAGGGGTTATATGATGATTTGAATTCATGGGGCCCGACT
Put plainly: curcumin fluorescence displacement. Particulars: 0.1 mM NaCl, 5% ethanol, curcumin 0.6 µM, no sensor response.

The subject of assay [4] is 75-mer BPA aptamer (DNA, aptamer) ATACGAGCTTGTTCAATAGGAAATCACGATTAGGTCCTCCGTCTGTGTGCGGTTGTGGTGATAGTAAGAGCAATC
Put plainly: curcumin fluorescence displacement. Particulars: 0.1 mM NaCl; 5% ethanol; aptamer 100 nM, curcumin 0.6 µM displaced.

Assay [5] deals with 56-mer VTD3 aptamer (DNA, aptamer) AGCAGCACAGAGGTCATGGGGGGTGTGACTTTGGTGTGCCTATGCGTGCTACGGAA
Put plainly: fluorescence enhancement; CD. Particulars: 0.1 M NaCl; 5% ethanol; SYBR Green I 5 µM.

For assay [6] the test system is unchanged. Put plainly: fluorescence titration, Langmuir fit. Particulars: 0.1 mM NaCl (methods: 0.1 M NaCl); 5% ethanol, 5 and 25 °C; curcumin 0.6 µM; b27 prints 0.7 µM, b25 0.7 nM.
For assay [7], the system named is 75-mer BPA aptamer (DNA, aptamer) ATACGAGCTTGTTCAATAGGAAATCACGATTAGGTCCTCCGTCTGTGTGCGGTTGTGGTGATAGTAAGAGCAATC
Put plainly: fluorescence enhancement. The following applies: 0.1 mM NaCl; aptamer 100 nM, curcumin 0.6 µM.

As for `C=C1CC[C@H](O)C/C1=C/C=C1\CCC[C@]2(C)[C@@H]([C@H](C)/C=C/[C@H](C)C(C)C)CC[C@@H]12`, the binding result in assay [1] was “no”.

Regarding `C=C1CC[C@H](O)C/C1=C/C=C1\CCC[C@]2(C)[C@@H]([C@H](C)CCCC(C)C)CC[C@@H]12`, the binding entry is given as “yes” in assay [2] and “no” in assay [3] (VTD3 up to 1 µM).

On to `CC(=O)[C@H]1CC[C@H]2[C@@H]3CCC4=CC(=O)CC[C@]4(C)[C@H]3CC[C@]12C`, for which the binding result in assay [1] is “no”.

In the case of `CC(C)(c1ccc(O)cc1)c1ccc(O)cc1`, the results for the binding entry in assay [4] and in assay [3] were “yes” and “no”, respectively.

Turning to `CCCN(CCCN(C)C)c1cc(C=C2Sc3ccccc3N2C)c2ccccc2[n+]1-c1ccccc1`, in assay [5], the binding entry was “yes”.

On to `COc1cc(/C=C/C(=O)CC(=O)/C=C/c2ccc(O)c(OC)c2)ccc1O`, for which the KD (as a rule, the concentration at which binding is half-saturated) in assay [6] is recorded as 0.7 nM. Also, the binding entry in assay [7] is given as “yes”.

For the molecule `C[C@]12C=CC(=O)C=C1CC[C@@H]1[C@@H]2C(=O)C[C@@]2(C)[C@H]1CC[C@]2(O)C(=O)CO`, the binding result in assay [1] is “no”.

For the molecule `C[C@]12CC[C@@H]3c4ccc(O)cc4CC[C@H]3[C@@H]1CC[C@@H]2O`, the binding entry in assay [1] is on record as “no”.
